In patent US20260200920A1, “SUBSTITUTED AMINOPYRIDINE COMPOUNDS FOR USE AS AKT1 INHIBITORS” (Atavistik Bio, Inc., priority 2023, published 2026):

Columns and labels:
[1] = target: T1, human recombinant kinase full-length AKT1 E17K (Homo sapiens, UniProt P31749, E17K); assay: AKT1 E17K kinase assay (TR-FRET, Lance); format: biochemical; settings: 0.6 nM AKT1 E17K, 50 nM Ulight-CREBtide, either 50 μM ATP or 2 mM ATP, 60 min at RT
T1 construct: Purified human recombinant kinase full-length AKT1 E17K was expressed in insect cells; made in house; host or cells: insect cells
T1 sequence (P31749 whole entry E17K): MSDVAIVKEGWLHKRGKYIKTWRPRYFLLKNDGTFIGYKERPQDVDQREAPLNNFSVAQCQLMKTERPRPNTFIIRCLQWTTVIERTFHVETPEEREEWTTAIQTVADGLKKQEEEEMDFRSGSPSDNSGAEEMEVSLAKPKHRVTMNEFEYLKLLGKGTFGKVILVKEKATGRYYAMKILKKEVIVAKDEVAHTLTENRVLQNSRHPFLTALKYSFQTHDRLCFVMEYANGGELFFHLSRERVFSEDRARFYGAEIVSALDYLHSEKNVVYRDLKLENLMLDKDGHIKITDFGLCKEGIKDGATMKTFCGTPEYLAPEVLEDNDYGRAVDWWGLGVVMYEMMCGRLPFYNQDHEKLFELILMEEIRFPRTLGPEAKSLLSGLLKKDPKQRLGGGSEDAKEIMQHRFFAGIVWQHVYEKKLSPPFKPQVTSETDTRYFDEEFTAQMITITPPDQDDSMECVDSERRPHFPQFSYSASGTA
Method: AKT1 E17K kinase assay: Inhibitory effects of compounds on AKT1 E17K were undertaken in a 10-pt dose response kinase activity assay measuring phospho-peptide product formation based on TR-FRET signal as described in the following paragraph.
(§1) Purified human recombinant kinase full-length AKT1 E17K was expressed in insect cells and activated in vitro by PDPK1. Ulight™-CREBtide (PerkinElmer, catalog number TRF0107) was used as the peptide substrate. The reaction buffer consisted of 50 mM HEPES pH 7.5, 10 mM MgCl2, 0.01% Triton X-100, 0.01% BSA, 2 mM DTT, 0.6 nM AKT1 E17K, 50 nM Ulight™-CREBtide and either 50 μM ATP or 2 mM ATP. The compound solution was prepared as 10 mM DMSO stock. For the assay, a 1.3 serial dilution 10-pt dose response of test compounds, in duplicate, for each concentration were dispensed into a 384-well plate (Corning, catalog number 4513). Final DMSO concentration in the assay was 1%. The enzyme mixture (5 μL, 1.2 nM) were added and the mixture was incubated for 15 min at RT prior to the start of the kinase reaction by the addition of 5 μL substrate mixture (100 nM Ulight™-CREBtide). The reaction was stopped after 60 min of incubation at RT by the addition of 10 μL of Detection Mix (PerkinElmer, #CR97-100) consisting of Europium-anti-phospho-CREB (Ser133) (Perkin Elmer, catalog number TRF0200). Incubation with the detection mix for a further 60 min allowed binding of antibody to the phospho-Ulight™ CREBtide. The fluorescence emissions at 620 nm and 665 nm after excitation at 350 nm was measured using Envision reader. The ratio of the emissions at 665 nm and at 620 nm provided the measure for the amount of phosphorylated CREBtide product of AKT1 E17K kinase activity. To determine the IC50 values, the data was normalized (enzyme reaction without inhibitor=0% inhibition, all other assay components but no enzyme=100% inhibition) and IC50 values were calculated by a 4-parameter fit using an in-house developed protocol.
Table 9 assigns each compound a code for potency in the AKT1 E 17K kinase assay: A, B, or C. According to the code, A represents an IC50 value <500 nM; B represents an IC50 value from ≥500 nM to <2000 nM; and C represents an IC50 value ≥2000 nM.

[2] = target: T2, human recombinant kinase full-length wildtype AKT1 (Homo sapiens, UniProt P31749); assay: AKT1 kinase assay (wildtype, TR-FRET, Lance); format: biochemical; settings: 0.6 nM wildtype AKT1, 50 nM Ulight-CREBtide, either 50 μM ATP or 2 mM ATP, 60 min at RT
T2 construct: Purified human recombinant kinase full-length wildtype AKT1 was expressed in insect cells; made in house; host or cells: insect cells
T2 sequence (P31749 whole entry): as the sequence (P31749 whole entry E17K) above, with K17E counted along it
Method: AKT1 kinase assay: Inhibitory effects of compounds on wildtype AKT1 were undertaken in a 10-pt dose response kinase activity assay measuring phospho-peptide product formation based on TR-FRET signal as described in the following paragraph.
as §1, with “full-length wildtype” for “full-length”, “AKT1” for “AKT1 E17K”, “AKT1,50” for “AKT1 E17K, 50”, “1:3” for “1.3”
The symbol +++ represents an IC50 value <20 μM; the symbol ++ represents an IC50 value from ≥20 μM to 80 μM.

| Compound | IC50 [1] [nM] | IC50 [2] [nM] |
| --- | --- | --- |
| Nc1ncccc1-c1nc2ccc(-c3ccccc3)nc2n1-c1ccc(C(=O)N[C@H]2CC[C@H](C(=O)O)CC2)nc1 [Compound I-19, (1r,4r)-4-(5-(2-(2-aminopyridin-3-yl)-5-phenyl-3H-imidazo[4,5-b]pyridin-3-yl)picolinamido)cyclohexane-1-carboxylic acid] | ≥ 2000 | < 20000 |
| Nc1ncccc1-c1nc2ccc(-c3ccccc3)nc2n1-c1ccc(C(=O)N2CCC(C(=O)O)CC2)cc1 [Compound I-20, 1-(4-(2-(2-aminopyridin-3-yl)-5-phenyl-3H-imidazo[4,5-b]pyridin-3-yl)benzoyl)piperidine-4-carboxylic acid] | ≥ 2000 | < 20000 |
| Nc1ncccc1-c1nc2ccc(-c3ccccc3)nc2n1-c1ccc(C(=O)N2CCCC(C(=O)O)C2)cc1 (stereo not drawn) [Compound I-21, 1-(4-(2-(2-aminopyridin-3-yl)-5-phenyl-3H-imidazo[4,5-b]pyridin-3-yl)benzoyl)piperidine-3-carboxylic acid] | ≥ 2000 | < 20000 |
| Nc1ncccc1-c1nc2ccc(-c3ccccc3)nc2n1-c1ccc(C(=O)N2CCC(C(=O)O)CC2)nc1 [Compound I-22, 1-(5-(2-(2-aminopyridin-3-yl)-5-phenyl-3H-imidazo[4,5-b]pyridin-3-yl)picolinoyl)piperidine-4-carboxylic acid] | ≥ 2000 | 20000 to 80000 |
| CC1(C(=O)O)CCN(C(=O)c2ccc(-n3c(-c4cccnc4N)nc4ccc(-c5ccccc5)nc43)cn2)CC1 [Compound I-23, 1-(5-(2-(2-aminopyridin-3-yl)-5-phenyl-3H-imidazo[4,5-b]pyridin-3-yl)picolinoyl)-4-methylpiperidine-4-carboxylic acid] | ≥ 2000 | 20000 to 80000 |
| CC1(C)CN(C(=O)c2ccc(-n3c(-c4cccnc4N)nc4ccc(-c5ccccc5)nc43)cn2)CCC1C(=O)O (stereo not drawn) [Compound I-24, 1-(5-(2-(2-aminopyridin-3-yl)-5-phenyl-3H-imidazo[4,5-b]pyridin-3-yl)picolinoyl)-3,3-dimethylpiperidine-4-carboxylic acid] | ≥ 2000 | < 20000 |
| Nc1ncccc1-c1nc2ccc(-c3ccccc3)nc2n1-c1ccc(N2CCC(C(=O)O)C2)nc1 (stereo not drawn) [Compound I-25, 1-(5-(2-(2-aminopyridin-3-yl)-5-phenyl-3H-imidazo[4,5-b]pyridin-3-yl)pyridin-2-yl)pyrrolidine-3-carboxylic acid] | 500 to 2000 | < 20000 |
| CC(C(=O)O)C1CCN(c2ccc(-n3c(-c4cccnc4N)nc4ccc(-c5ccccc5)nc43)cn2)C1 (stereo not drawn) [Compound I-26, 2-(1-(5-(2-(2-aminopyridin-3-yl)-5-phenyl-3H-imidazo[4,5-b]pyridin-3-yl)pyridin-2-yl)pyrrolidin-3-yl)propanoic acid] | ≥ 2000 | < 20000 |
| Nc1ncccc1-c1nc2ccc(-c3ccccc3)nc2n1-c1ccc(N2CCC(C(=O)O)CC2)nc1 [Compound I-27, 1-(5-(2-(2-aminopyridin-3-yl)-5-phenyl-3H-imidazo[4,5-b]pyridin-3-yl)pyridin-2-yl)piperidine-4-carboxylic acid] | 500 to 2000 | < 20000 |
| Nc1ncccc1-c1nc2ccc(-c3ccccc3)nc2n1-c1ccc(N2CCCC(C(=O)O)C2)nc1 (stereo not drawn) [Compound I-28, 1-(5-(2-(2-aminopyridin-3-yl)-5-phenyl-3H-imidazo[4,5-b]pyridin-3-yl)pyridin-2-yl)piperidine-3-carboxylic acid] | ≥ 2000 | < 20000 |
| Nc1ncccc1-c1nc2ccc(-c3ccccc3)nc2n1-c1ccc(CN2CCC(C(=O)O)CC2)cc1 [Compound I-29, 1-(4-(2-(2-aminopyridin-3-yl)-5-phenyl-3H-imidazo[4,5-b]pyridin-3-yl)benzyl)piperidine-4-carboxylic acid] | 500 to 2000 | < 20000 |
| Nc1ncccc1-c1nc2ccc(-c3ccccc3)nc2n1-c1ccc(CN2CCC(C(=O)O)CC2)c(F)c1 [Compound I-30, 1-(4-(2-(2-aminopyridin-3-yl)-5-phenyl-3H-imidazo[4,5-b]pyridin-3-yl)-2-fluorobenzyl)piperidine-4-carboxylic acid] | ≥ 2000 | < 20000 |
| Nc1ncccc1-c1nc2ccc(-c3ccccc3)nc2n1-c1ccc(CNC2CCC(C(=O)O)CC2)cc1 (stereo not drawn) [Compound I-31, 4-((4-(2-(2-aminopyridin-3-yl)-5-phenyl-3H-imidazo[4,5-b]pyridin-3-yl)benzyl)amino)cyclohexane-1-carboxylic acid] | 500 to 2000 | < 20000 |
| Nc1ncccc1-c1nc2ccc(-c3ccccc3)cc2n1-c1ccc(NC(=O)[C@H]2CC[C@H](C(=O)O)CC2)nc1 [Compound I-32, (1r,4r)-4-((5-(2-(2-aminopyridin-3-yl)-6-phenyl-1H-benzo[d]imidazol-1-yl)pyridin-2-yl)carbamoyl)cyclohexane-1-carboxylic acid] | 500 to 2000 | < 20000 |
| Nc1ncccc1-c1nc2ccc(N3CCOCC3)cc2n1-c1ccc(NC(=O)[C@H]2CC[C@H](C(=O)O)CC2)cc1 [Compound I-33, (1r,4r)-4-((4-(2-(2-aminopyridin-3-yl)-6-morpholino-1H-benzo[d]imidazol-1-yl)phenyl)carbamoyl)cyclohexane-1-carboxylic acid] | ≥ 2000 | < 20000 |
| Nc1ncccc1-c1nc2ccc(C3CCOCC3)cc2n1-c1ccc(NC(=O)[C@H]2CC[C@H](C(=O)O)CC2)cc1 [Compound I-34, (1r,4r)-4-((4-(2-(2-aminopyridin-3-yl)-6-(tetrahydro-2H-pyran-4-yl)-1H-benzo[d]imidazol-1-yl)phenyl)carbamoyl)cyclohexane-1-carboxylic acid] | ≥ 2000 | < 20000 |
| CC(C)(C)c1ccc2nc(-c3cccnc3N)n(-c3ccc(NC(=O)[C@H]4CC[C@H](C(=O)O)CC4)cc3)c2c1 [Compound I-35, (1r,4r)-4-((4-(2-(2-aminopyridin-3-yl)-6-(tert-butyl)-1H-benzo[d]imidazol-1-yl)phenyl)carbamoyl)cyclohexane-1-carboxylic acid] | ≥ 2000 | < 20000 |
| Nc1ncccc1-c1nc2ccc(-c3ccccc3)nc2n1-c1ccc(C2CN(C[C@H]3CC[C@@H](C(=O)O)CC3)C2)cc1 [Compound I-36, (1s,4s)-4-((3-(4-(2-(2-aminopyridin-3-yl)-5-phenyl-3H-imidazo[4,5-b]pyridin-3-yl)phenyl)azetidin-1-yl)methyl)cyclohexane-1-carboxylic acid] | 500 to 2000 | < 20000 |
